Data published in article PMC10088252.
Read-outs that look alike come from different tables or passages of the source.

Experimental: Dose adjustment was allowed according to the severity of toxicity [Supplementary Table 1].
The primary endpoints were safety, ORR and DCR assessed by investigators. […] AEs referred to treatment-emergent adverse events (TEAEs) and TRAEs were assessed by investigators. Serious adverse events (SAEs) referred to AEs meeting at least one of the following criteria: event leading to death; life-threatening event; event requiring hospitalization or extension of hospital stay; event leading to persistent or evident disability or dysfunction; event leading to congenital malformation or birth defect or event which might lead to injury or that need medical treatment to avoid the above mentioned important medical events.

O=C(Nc1ccc(Oc2ccnc3c2CCN3)c(F)c1)c1c[nH]cc(-c2ccc(F)cc2)c1=O
TRAE Rash maculo-papular, any grade (600 mg QD (n=10)): 0 n (%) | TRAE Rash maculo-papular, grade 3-4 (600 mg QD (n=10)): 0 n (%) | TRAE Sinus tachycardia, any grade (600 mg QD (n=10)): 1 (10.0) n (%) | TRAE Sinus tachycardia, grade 3-4 (600 mg QD (n=10)): 0 n (%) | TRAE Skin fissures, any grade (600 mg QD (n=10)): 1 (10.0) n (%) | TRAE Skin fissures, grade 3-4 (600 mg QD (n=10)): 1 (10.0) n (%) | TRAE Supraventricular extrasystoles, any grade (600 mg QD (n=10)): 1 (10.0) n (%) | TRAE Supraventricular extrasystoles, grade 3-4 (600 mg QD (n=10)): 0 n (%) | TRAE Thrombocytopenia, any grade (600 mg QD (n=10)): 1 (10.0) n (%) | TRAE Thrombocytopenia, grade 3-4 (600 mg QD (n=10)): 1 (10.0) n (%) | TRAE Upper respiratory tract infection, any grade (600 mg QD (n=10)): 0 n (%) | TRAE Upper respiratory tract infection, grade 3-4 (600 mg QD (n=10)): 0 n (%) | TRAE Urinary retention, any grade (600 mg QD (n=10)): 1 (10.0) n (%) | TRAE Urinary retention, grade 3-4 (600 mg QD (n=10)): 0 n (%) | TRAE Urinary tract infection, any grade (600 mg QD (n=10)): 2 (20.0) n (%) | TRAE Urinary tract infection, grade 3-4 (600 mg QD (n=10)): 0 n (%) | TRAE Ventricular arrhythmia, any grade (600 mg QD (n=10)): 1 (10.0) n (%) | TRAE Ventricular arrhythmia, grade 3-4 (600 mg QD (n=10)): 0 n (%) | TRAE Ventricular extrasystoles, any grade (600 mg QD (n=10)): 0 n (%) | TRAE Ventricular extrasystoles, grade 3-4 (600 mg QD (n=10)): 0 n (%) | TRAE Vomiting, any grade (600 mg QD (n=10)): 0 n (%) | TRAE Vomiting, grade 3-4 (600 mg QD (n=10)): 0 n (%) | TRAE Weight loss, any grade (600 mg QD (n=10)): 1 (10.0) n (%) | TRAE Weight loss, grade 3-4 (600 mg QD (n=10)): 0 n (%) | SAEs, patients (Total (n=38)): 13.2% | TRAE Accessory nerve disorder, any grade (Total (n=38)): 1 (2.6) n (%) | TRAE Accessory nerve disorder, grade 3-4 (Total (n=38)): 0 n (%) | TRAE Activated partial thromboplastin time prolonged, any grade (Total (n=38)): 2 (5.3) n (%) | TRAE Activated partial thromboplastin time prolonged, grade 3-4 (Total (n=38)): 0 n (%) | TRAE Anaemia, any grade (Total (n=38)): 2 (5.3) n (%) | TRAE Anaemia, grade 3-4 (Total (n=38)): 1 (2.6) n (%) | TRAE Anaesthesia oral, any grade (Total (n=38)): 1 (2.6) n (%) | TRAE Anaesthesia oral, grade 3-4 (Total (n=38)): 0 n (%) | TRAE Arrhythmia, any grade (Total (n=38)): 1 (2.6) n (%) | TRAE Arrhythmia, grade 3-4 (Total (n=38)): 0 n (%) | TRAE Arthralgia, any grade (Total (n=38)): 1 (2.6) n (%) | TRAE Arthralgia, grade 3-4 (Total (n=38)): 0 n (%) | TRAE Asthenia, any grade (Total (n=38)): 5 (13.2) n (%) | TRAE Asthenia, grade 3-4 (Total (n=38)): 1 (2.6) n (%) | TRAE Blister, any grade (Total (n=38)): 1 (2.6) n (%) | TRAE Blister, grade 3-4 (Total (n=38)): 0 n (%) | TRAE Chest discomfort, any grade (Total (n=38)): 1 (2.6) n (%) | TRAE Chest discomfort, grade 3-4 (Total (n=38)): 0 n (%) | TRAE Chronic kidney disease, any grade (Total (n=38)): 1 (2.6) n (%) | TRAE Chronic kidney disease, grade 3-4 (Total (n=38)): 0 n (%) | TRAE Constipation, any grade (Total (n=38)): 8 (21.1) n (%) | TRAE Constipation, grade 3-4 (Total (n=38)): 0 n (%) | TRAE Cough, any grade (Total (n=38)): 1 (2.6) n (%) | TRAE Cough, grade 3-4 (Total (n=38)): 0 n (%) | TRAE Decreased Ccr, any grade (Total (n=38)): 6 (15.8) n (%) | TRAE Decreased Ccr, grade 3-4 (Total (n=38)): 0 n (%) | TRAE Decreased appetite, any grade (Total (n=38)): 5 (13.2) n (%) | TRAE Decreased appetite, grade 3-4 (Total (n=38)): 1 (2.6) n (%) | TRAE Diarrhoea, any grade (Total (n=38)): 3 (7.9) n (%) | TRAE Diarrhoea, grade 3-4 (Total (n=38)): 0 n (%) | TRAE Dizziness, any grade (Total (n=38)): 1 (2.6) n (%) | TRAE Dizziness, grade 3-4 (Total (n=38)): 0 n (%) | TRAE Dry mouth, any grade (Total (n=38)): 3 (7.9) n (%) | TRAE Dry mouth, grade 3-4 (Total (n=38)): 0 n (%) | TRAE Dysgeusia, any grade (Total (n=38)): 9 (23.7) n (%) | TRAE Dysgeusia, grade 3-4 (Total (n=38)): 1 (2.6) n (%) | TRAE Dyskinesia, any grade (Total (n=38)): 1 (2.6) n (%) | TRAE Dyskinesia, grade 3-4 (Total (n=38)): 1 (2.6) n (%) | TRAE Dysphonia, any grade (Total (n=38)): 1 (2.6) n (%) | TRAE Dysphonia, grade 3-4 (Total (n=38)): 0 n (%) | TRAE Dyspnoea, any grade (Total (n=38)): 1 (2.6) n (%) | TRAE Dyspnoea, grade 3-4 (Total (n=38)): 1 (2.6) n (%) | TRAE Electrocardiogram QT prolonged, any grade (Total (n=38)): 1 (2.6) n (%) | TRAE Electrocardiogram QT prolonged, grade 3-4 (Total (n=38)): 0 n (%) | TRAE Elevated ALT, any grade (Total (n=38)): 14 (36.8) n (%) | TRAE Elevated ALT, grade 3-4 (Total (n=38)): 0 n (%) | TRAE Elevated AST, any grade (Total (n=38)): 11 (28.9) n (%) | TRAE Elevated AST, grade 3-4 (Total (n=38)): 0 n (%) | TRAE Elevated D dimer, any grade (Total (n=38)): 1 (2.6) n (%) | TRAE Elevated D dimer, grade 3-4 (Total (n=38)): 0 n (%) | TRAE Elevated GGT, any grade (Total (n=38)): 1 (2.6) n (%) | TRAE Elevated GGT, grade 3-4 (Total (n=38)): 0 n (%) | TRAE Elevated LDH, any grade (Total (n=38)): 1 (2.6) n (%) | TRAE Elevated LDH, grade 3-4 (Total (n=38)): 0 n (%) | TRAE Elevated alpha-HBDH, any grade (Total (n=38)): 1 (2.6) n (%) | TRAE Elevated alpha-HBDH, grade 3-4 (Total (n=38)): 0 n (%) | TRAE Elevated bilirubin, any grade (Total (n=38)): 3 (7.9) n (%) | TRAE Elevated bilirubin, grade 3-4 (Total (n=38)): 0 n (%) | TRAE Elevated blood creatinine, any grade (Total (n=38)): 7 (18.4) n (%) | TRAE Elevated blood creatinine, grade 3-4 (Total (n=38)): 0 n (%) | TRAE Elevated creatine phosphokinase, any grade (Total (n=38)): 3 (7.9) n (%) | TRAE Elevated creatine phosphokinase, grade 3-4 (Total (n=38)): 0 n (%) | TRAE Elevated serum urea, any grade (Total (n=38)): 1 (2.6) n (%) | TRAE Elevated serum urea, grade 3-4 (Total (n=38)): 0 n (%) | TRAE Elevated troponin, any grade (Total (n=38)): 1 (2.6) n (%) | TRAE Elevated troponin, grade 3-4 (Total (n=38)): 0 n (%) | TRAE Genital rash, any grade (Total (n=38)): 1 (2.6) n (%) | TRAE Genital rash, grade 3-4 (Total (n=38)): 0 n (%) | TRAE Haematuria, any grade (Total (n=38)): 3 (7.9) n (%) | TRAE Haematuria, grade 3-4 (Total (n=38)): 0 n (%) | TRAE Headache, any grade (Total (n=38)): 1 (2.6) n (%) | TRAE Headache, grade 3-4 (Total (n=38)): 0 n (%) | TRAE Hyperhidrosis, any grade (Total (n=38)): 1 (2.6) n (%) | TRAE Hyperhidrosis, grade 3-4 (Total (n=38)): 0 n (%) | TRAE Hyperlipidaemia, any grade (Total (n=38)): 1 (2.6) n (%) | TRAE Hyperlipidaemia, grade 3-4 (Total (n=38)): 0 n (%) | TRAE Hypertension, any grade (Total (n=38)): 4 (10.5) n (%) | TRAE Hypertension, grade 3-4 (Total (n=38)): 1 (2.6) n (%) | TRAE Hypoaesthesia oral, any grade (Total (n=38)): 2 (5.3) n (%) | TRAE Hypoaesthesia oral, grade 3-4 (Total (n=38)): 0 n (%) | TRAE Hypocalcaemia, any grade (Total (n=38)): 1 (2.6) n (%) | TRAE Hypocalcaemia, grade 3-4 (Total (n=38)): 0 n (%) | TRAE Hypotension, any grade (Total (n=38)): 1 (2.6) n (%) | TRAE Hypotension, grade 3-4 (Total (n=38)): 0 n (%) | TRAE Insomnia, any grade (Total (n=38)): 1 (2.6) n (%) | TRAE Insomnia, grade 3-4 (Total (n=38)): 0 n (%) | TRAE Leukopenia, any grade (Total (n=38)): 3 (7.9) n (%) | TRAE Leukopenia, grade 3-4 (Total (n=38)): 0 n (%) | TRAE Nausea, any grade (Total (n=38)): 3 (7.9) n (%) | TRAE Nausea, grade 3-4 (Total (n=38)): 0 n (%) | TRAE Neuritis, any grade (Total (n=38)): 2 (5.3) n (%) | TRAE Neuritis, grade 3-4 (Total (n=38)): 0 n (%) | TRAE Occult blood, any grade (Total (n=38)): 2 (5.3) n (%) | TRAE Occult blood, grade 3-4 (Total (n=38)): 0 n (%) | TRAE Oedema peripheral, any grade (Total (n=38)): 2 (5.3) n (%) | TRAE Oedema peripheral, grade 3-4 (Total (n=38)): 0 n (%) | TRAE Onycholysis, any grade (Total (n=38)): 1 (2.6) n (%) | TRAE Onycholysis, grade 3-4 (Total (n=38)): 0 n (%) | TRAE Oropharyngeal pain, any grade (Total (n=38)): 1 (2.6) n (%) | TRAE Oropharyngeal pain, grade 3-4 (Total (n=38)): 1 (2.6) n (%) | TRAE PPE (Total (n=38)): 23.7% | TRAE PPE, any grade (Total (n=38)): 9 (23.7) n (%) | TRAE PPE, grade 3-4 (Total (n=38)): 4 (10.5) n (%) | TRAE Paraesthesia, any grade (Total (n=38)): 1 (2.6) n (%) | TRAE Paraesthesia, grade 3-4 (Total (n=38)): 0 n (%) | TRAE Proteinuria, any grade (Total (n=38)): 4 (10.5) n (%) | TRAE Proteinuria, grade 3-4 (Total (n=38)): 1 (2.6) n (%) | TRAE Pruritus, any grade (Total (n=38)): 1 (2.6) n (%) | TRAE Pruritus, grade 3-4 (Total (n=38)): 0 n (%) | TRAE Rash maculo-papular, any grade (Total (n=38)): 1 (2.6) n (%) | TRAE Rash maculo-papular, grade 3-4 (Total (n=38)): 0 n (%) | TRAE Sinus tachycardia, any grade (Total (n=38)): 1 (2.6) n (%) | TRAE Sinus tachycardia, grade 3-4 (Total (n=38)): 0 n (%) | TRAE Skin fissures, any grade (Total (n=38)): 1 (2.6) n (%) | TRAE Skin fissures, grade 3-4 (Total (n=38)): 1 (2.6) n (%) | TRAE Supraventricular extrasystoles, any grade (Total (n=38)): 1 (2.6) n (%) | TRAE Supraventricular extrasystoles, grade 3-4 (Total (n=38)): 0 n (%) | TRAE Thrombocytopenia, any grade (Total (n=38)): 3 (7.9) n (%) | TRAE Thrombocytopenia, grade 3-4 (Total (n=38)): 2 (5.3) n (%) | TRAE Upper respiratory tract infection, any grade (Total (n=38)): 1 (2.6) n (%) | TRAE Upper respiratory tract infection, grade 3-4 (Total (n=38)): 0 n (%) | TRAE Urinary retention, any grade (Total (n=38)): 1 (2.6) n (%) | TRAE Urinary retention, grade 3-4 (Total (n=38)): 0 n (%) | TRAE Urinary tract infection, any grade (Total (n=38)): 3 (7.9) n (%) | TRAE Urinary tract infection, grade 3-4 (Total (n=38)): 0 n (%) | TRAE Ventricular arrhythmia, any grade (Total (n=38)): 3 (7.9) n (%) | TRAE Ventricular arrhythmia, grade 3-4 (Total (n=38)): 0 n (%) | TRAE Ventricular extrasystoles, any grade (Total (n=38)): 1 (2.6) n (%) | TRAE Ventricular extrasystoles, grade 3-4 (Total (n=38)): 0 n (%) | TRAE Vomiting, any grade (Total (n=38)): 2 (5.3) n (%) | TRAE Vomiting, grade 3-4 (Total (n=38)): 0 n (%) | TRAE Weight loss, any grade (Total (n=38)): 1 (2.6) n (%) | TRAE Weight loss, grade 3-4 (Total (n=38)): 0 n (%) | TRAE constipation (Total (n=38)): 21.1% | TRAE dysgeusia (Total (n=38)): 23.7% | TRAE elevated ALT (Total (n=38)): 36.8% | TRAE elevated AST (Total (n=38)): 28.9% | grade ≥ 3 TEAEs, patients (Total (n=38)): 36.8% | grade ≥ 3 TRAE PPE (Total (n=38)): 10.5% | grade ≥ 3 TRAEs, patients (Total (n=38)): 28.9% | patients with at least one TEAE (Total (n=38)): All the 38 patients | treatment-related deaths (Total (n=38)): No treatment-related deaths occurred | TRAE leading to treatment discontinuation, patients (Total (n=38), grade 3 PPE in 400 mg BID cohort): 2.6% | treatment-related SAE, patients (Total (n=38), thrombocytopenia in 600 mg QD cohort): 2.6%
